The target of one data set is T1, OCT2 (Homo sapiens, UniProt O15244).
T1 sequence (O15244 1-555): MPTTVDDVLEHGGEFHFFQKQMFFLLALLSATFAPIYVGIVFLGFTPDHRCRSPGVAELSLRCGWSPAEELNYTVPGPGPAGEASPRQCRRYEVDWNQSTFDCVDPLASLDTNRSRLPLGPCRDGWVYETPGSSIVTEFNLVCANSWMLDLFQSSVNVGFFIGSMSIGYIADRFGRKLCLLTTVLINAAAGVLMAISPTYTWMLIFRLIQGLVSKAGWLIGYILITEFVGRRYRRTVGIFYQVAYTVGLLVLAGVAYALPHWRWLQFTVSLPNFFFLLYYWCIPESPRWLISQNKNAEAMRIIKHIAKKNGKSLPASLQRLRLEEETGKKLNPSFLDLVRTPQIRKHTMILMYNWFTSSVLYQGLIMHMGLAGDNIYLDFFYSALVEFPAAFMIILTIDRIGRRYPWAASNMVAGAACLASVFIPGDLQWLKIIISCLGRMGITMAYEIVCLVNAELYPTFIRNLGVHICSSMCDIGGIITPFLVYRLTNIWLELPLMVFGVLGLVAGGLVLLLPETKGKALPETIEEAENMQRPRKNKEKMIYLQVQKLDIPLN
The data set is described as follows: Drug transporter fluorometric inhibition, OCT2. It is filed as in vitro ADME. On the procedure: Drug transporter (fluorometric inhibition)
The percent of control was calculated using the following equation. The percent of inhibition was calculated by subtracting the percent of control from 100. The IC50 value (concentration causing a half-maximal inhibition of the control value) was determined by non-linear regression analysis of the concentration-response curve using the Hill equation.
Compound is the individual reading in the presence of the test compound. T1 is the mean reading in the absence of the test compound. Background (for P-gp and BCRP) is the mean reading in the presence of the highest effective concentration of the reference inhibitor. Background (for OATP1B1, OATP1B3, OAT1, OAT3, and OCT2) is the mean reading in the absence of both the test compound and the substrate.

A further data set concerns the target T2, AR (Homo sapiens, UniProt P10275).
T2 sequence (P10275 1-920): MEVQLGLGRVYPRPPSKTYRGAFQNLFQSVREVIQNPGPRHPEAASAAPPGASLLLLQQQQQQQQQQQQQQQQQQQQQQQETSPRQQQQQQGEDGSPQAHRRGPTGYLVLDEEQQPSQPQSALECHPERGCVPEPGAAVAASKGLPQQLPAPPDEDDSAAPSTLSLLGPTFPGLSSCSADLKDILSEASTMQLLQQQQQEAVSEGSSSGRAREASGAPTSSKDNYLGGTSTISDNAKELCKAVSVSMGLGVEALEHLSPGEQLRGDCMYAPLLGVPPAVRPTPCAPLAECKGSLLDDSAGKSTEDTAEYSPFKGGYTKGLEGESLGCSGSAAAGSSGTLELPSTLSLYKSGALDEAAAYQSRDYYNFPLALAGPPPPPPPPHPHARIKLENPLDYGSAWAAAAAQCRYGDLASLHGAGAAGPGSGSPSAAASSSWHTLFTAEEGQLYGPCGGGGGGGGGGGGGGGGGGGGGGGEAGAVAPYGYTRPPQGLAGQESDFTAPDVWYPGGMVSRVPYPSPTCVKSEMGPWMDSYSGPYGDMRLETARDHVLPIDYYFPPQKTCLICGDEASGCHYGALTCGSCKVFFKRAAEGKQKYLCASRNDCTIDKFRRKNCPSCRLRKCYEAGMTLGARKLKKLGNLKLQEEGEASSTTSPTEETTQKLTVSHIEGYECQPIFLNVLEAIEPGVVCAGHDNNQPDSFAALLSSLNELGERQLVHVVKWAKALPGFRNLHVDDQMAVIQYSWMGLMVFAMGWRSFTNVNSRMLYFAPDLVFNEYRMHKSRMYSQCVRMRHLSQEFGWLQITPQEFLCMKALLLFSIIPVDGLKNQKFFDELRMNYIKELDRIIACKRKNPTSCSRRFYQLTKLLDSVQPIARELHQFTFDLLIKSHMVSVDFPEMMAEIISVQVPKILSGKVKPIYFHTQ
In words: Off target selectivity assay, Nuclear Hormone Receptor AR.

Another data set deals with OPRM1 (Homo sapiens, UniProt P35372). The data set is described as follows: Off target selectivity assay, OPRM1. It is filed as cell-based. The conditions noted are these: dose response, concentrations up to 10 μM; read-out: IC50 or EC50 on OPRM1. On the procedure: Final assay vehicle concentration was 1%.
For Gi coupled GPCRs, EC80 forskolin was included.
DMSO concentration for all readouts is ≤0.2%.
Probenicid was prepared fresh. Cells were loaded with dye prior to testing.

Chain of OPRM1 (P35372 whole entry): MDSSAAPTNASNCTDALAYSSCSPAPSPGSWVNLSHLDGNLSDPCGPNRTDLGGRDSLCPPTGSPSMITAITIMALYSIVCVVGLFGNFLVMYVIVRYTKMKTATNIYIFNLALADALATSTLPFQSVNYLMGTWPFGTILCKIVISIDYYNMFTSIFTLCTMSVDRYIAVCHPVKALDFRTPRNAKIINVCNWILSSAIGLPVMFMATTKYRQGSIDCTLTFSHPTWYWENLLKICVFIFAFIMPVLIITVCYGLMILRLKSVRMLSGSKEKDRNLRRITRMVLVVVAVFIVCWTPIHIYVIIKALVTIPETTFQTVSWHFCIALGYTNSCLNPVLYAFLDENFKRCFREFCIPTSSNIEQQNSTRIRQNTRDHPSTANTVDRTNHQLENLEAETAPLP

What is called inhibition is the drop in the measured response relative to a control, in per cent. The term IC50 denotes the concentration at which inhibition is half-maximal. Regarding `CC(=O)c1ccc2c(c1)[C@H]1C=CC[C@H]1[C@@H](c1cc3c(cc1Br)OCO3)N2` [RSS G-1, 1-((3aR,4S,9bS)-4-(6-bromobenzo[d][1,3]dioxol-5-yl)-3a,4,5,9b-tetrahydro-3H-cyclopenta[c]quinolin-8-yl)ethan-1-one], at OCT2, the inhibition at 10 µM turned out to be 53.2%. For the same compound, the concentration for half-maximal inhibition (IC50) on AR is 4.76 µM.

Consider `CC(=O)c1ccc2c(c1)[C@@H]1C=CC[C@@H]1[C@H](c1cc3c(cc1Br)OCO3)N2` (single isomer, unassigned) [SRR G-1], for which the IC50 on OPRM1 turned out to be 6.68 µM.

Values taken from patent publication US10934277B2, “Enantiomerically purified GPER agonist for use in treating disease states and conditions” (Linnaeus Therapeutics, Inc., priority 2018, dated 2021).
